Assay [1] concerns the target T1, Recombinant STAT3 protein (STAT3(G127-I722)) (Homo sapiens, UniProt P40763).
T1 construct: STAT3(G127-I722)
Description: STAT3 Fluorescence Polarization (FP) Assay. The assay is classed as binding. The note with it: STAT3(G127-I722) 25 nM, probe 5-FAM-GpYLPQTV-NH2 2 nM, 45-minute incubation. An outline of the steps: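 STAT3(G127-I722) at 25 nM and 5-FAM-GpYLPQTV-NH2 probe at 2 nM in HEPES pH 7.4 buffer with NaCl, EDTA, Tween 20, DTT; 1% DMSO. FP read after 45 min at room temperature; IC50 by nonlinear regression of mP vs log concentration, binned A ≤100 nM to D >10 μM.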

In assay [2] the target is T2, Recombinant STAT6 protein (STAT6(W123-T658)) (Homo sapiens, UniProt P42226).
T2 construct: STAT6(W123-T658)
T2 sequence (P42226 123-658): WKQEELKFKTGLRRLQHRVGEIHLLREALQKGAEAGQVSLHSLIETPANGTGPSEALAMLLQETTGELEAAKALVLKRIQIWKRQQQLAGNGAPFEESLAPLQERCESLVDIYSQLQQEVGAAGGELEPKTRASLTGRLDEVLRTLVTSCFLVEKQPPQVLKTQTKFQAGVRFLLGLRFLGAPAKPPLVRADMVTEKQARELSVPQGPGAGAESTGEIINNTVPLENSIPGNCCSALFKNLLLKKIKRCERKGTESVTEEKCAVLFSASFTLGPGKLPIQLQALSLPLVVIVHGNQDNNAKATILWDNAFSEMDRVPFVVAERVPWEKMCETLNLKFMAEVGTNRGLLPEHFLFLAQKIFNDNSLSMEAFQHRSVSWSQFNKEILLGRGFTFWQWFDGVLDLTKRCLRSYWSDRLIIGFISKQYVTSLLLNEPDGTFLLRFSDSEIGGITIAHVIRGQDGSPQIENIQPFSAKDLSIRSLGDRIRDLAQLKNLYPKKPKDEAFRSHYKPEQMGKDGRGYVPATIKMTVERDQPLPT
Description: STAT6 Fluorescence Polarization (FP) Assay. It counts as binding. The note with it: STAT6(W123-T658) 250 nM, probe 5-FAM-ApYKPFQDLI-NH2 2 nM, 45-minute incubation. An outline of the steps: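 STAT6 (W123-T658) at 250 nM mixed with 2 nM 5-FAM-ApYKPFQDLI-NH2 probe in HEPES pH 7.4 buffer with DTT and Tween 20, 1% DMSO final. Polarization read after 45 min at room temperature; IC50 by nonlinear regression of mP versus log concentration, reported in bins A–D.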

The source of these data is US20250215030A1, “STAT MODULATORS AND USES THEREOF” (Recludix Pharma, Inc., priority 2022, published 2025).

T1 sequence (P40763 127-722, species assumed): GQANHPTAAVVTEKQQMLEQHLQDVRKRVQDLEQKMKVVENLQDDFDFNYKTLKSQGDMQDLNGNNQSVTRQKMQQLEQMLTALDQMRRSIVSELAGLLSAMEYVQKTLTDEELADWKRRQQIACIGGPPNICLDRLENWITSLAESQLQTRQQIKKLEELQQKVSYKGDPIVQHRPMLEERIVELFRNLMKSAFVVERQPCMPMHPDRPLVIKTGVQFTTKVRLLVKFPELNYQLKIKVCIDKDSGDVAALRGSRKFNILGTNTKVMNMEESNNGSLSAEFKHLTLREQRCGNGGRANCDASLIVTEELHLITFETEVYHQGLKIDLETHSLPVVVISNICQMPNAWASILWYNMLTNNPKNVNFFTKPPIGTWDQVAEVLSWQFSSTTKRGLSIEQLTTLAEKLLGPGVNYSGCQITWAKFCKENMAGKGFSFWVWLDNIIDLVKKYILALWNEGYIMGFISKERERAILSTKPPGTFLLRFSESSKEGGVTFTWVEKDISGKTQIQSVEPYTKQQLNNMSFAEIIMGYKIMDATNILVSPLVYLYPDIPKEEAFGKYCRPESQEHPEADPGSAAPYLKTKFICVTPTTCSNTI

Turning to `NC(=O)N1CC[C@@H](NC(=O)[C@@H]2CC[C@@H]3C[C@H]4C[C@H]4C[C@H](NC(=O)c4cc5cc(C(F)(F)P(=O)(O)O)ccc5s4)C(=O)N32)C1` [Compound 118, ((2-(((3S,6S,7aS,8aR,9aR)-3-(((R)-1-carbamoylpyrrolidin-3-yl)carbamoyl)-5-oxodecahydro-1H-cyclopropa[d]pyrrolo[1,2-a]azocin-6-yl)carbamoyl)benzo[b]thiophen-5-yl)difluoromethyl)phosphonic acid], the results for the IC50 in assay [1] and in assay [2] were below 100 nM and 300 to 3000 nM, respectively.

For `O=C(N[C@H]1C[C@@H]2C[C@@H]2C[C@H]2CC[C@@H](C(=O)N[C@@H]3CCN(C4CCOCC4)C3)N2C1=O)c1cc2cc(C(F)(F)P(=O)(O)O)ccc2s1` [Compound 119, (difluoro(2-(((3S,6S,7aS,8aR,9aR)-5-oxo-3-(((R)-1-(tetrahydro-2H-pyran-4-yl)pyrrolidin-3-yl)carbamoyl)decahydro-1H-cyclopropa[d]pyrrolo[1,2-a]azocin-6-yl)carbamoyl)benzo[b]thiophen-5-yl)methyl)phosphonic acid], the IC50 in assay [1] fell in the range of 100 to 1000 nM; in assay [2], 3000 to 30000 nM.

With `O=C(N[C@H]1C[C@@H]2C[C@@H]2C[C@H]2CC[C@@H](C(=O)N[C@@H]3CCN(c4cn[nH]c4)C3)N2C1=O)c1cc2cc(C(F)(F)P(=O)(O)O)ccc2s1` [Compound 120, ((2-(((3S,6S,7aS,8aR,9aR)-3-(((R)-1-(1H-pyrazol-4-yl)pyrrolidin-3-yl)carbamoyl)-5-oxodecahydro-1H-cyclopropa[d]pyrrolo[1,2-a]azocin-6-yl)carbamoyl)benzo[b]thiophen-5-yl)difluoromethyl)phosphonic acid], the IC50 lay in the range of 100 to 1000 nM in assay [1] and 300 to 3000 nM in assay [2].

Consider `O=C(N[C@H]1C[C@H]2C[C@H]2C[C@H]2CC[C@@H](C(=O)N3CC(c4ccccc4)C3)N2C1=O)c1cc2cc(C(F)(F)P(=O)(O)O)ccc2s1` [Compound 121], for which the figures for the IC50 in assay [1] and in assay [2] were below 100 nM and 300 to 3000 nM, respectively.

As to `CC(C)(CNC(=O)[C@@H]1CC[C@@H]2C[C@@H]3C[C@@H]3C[C@H](NC(=O)c3cc4cc(C(F)(F)P(=O)(O)O)ccc4s3)C(=O)N21)c1cccnc1` [Compound 122, (difluoro(2-(((3S,6S,7aR,8aS,9aR)-3-((2-methyl-2-(pyridin-3-yl)propyl)carbamoyl)-5-oxodecahydro-1H-cyclopropa[d]pyrrolo[1,2-a]azocin-6-yl)carbamoyl)benzo[b]thiophen-5-yl)methyl)phosphonic acid], the half-inhibitory concentration (IC50) lay within 100 to 1000 nM in assay [1] and 3000 to 30000 nM in assay [2].

As for `O=C(N[C@H]1C[C@H]2C[C@H]2C[C@H]2CC[C@@H](C(=O)NCC(CO)c3cccnc3)N2C1=O)c1cc2cc(C(F)(F)P(=O)(O)O)ccc2s1` (stereo partly drawn) [Compound 123, (difluoro(2-(((3S,6S,7aR,8aS,9aR)-3-((3-hydroxy-2-(pyridin-3-yl)propyl)carbamoyl)-5-oxodecahydro-1H-cyclopropa[d]pyrrolo[1,2-a]azocin-6-yl)carbamoyl)benzo[b]thiophen-5-yl)methyl)phosphonic acid], the IC50 is 100 to 1000 nM in assay [1] and 3000 to 30000 nM in assay [2].

As to `O=C(N[C@H]1C[C@H]2C[C@H]2C[C@H]2CC[C@@H](C(=O)NCc3c[nH]c4ncccc34)N2C1=O)c1cc2cc(C(F)(F)P(=O)(O)O)ccc2s1` [Compound 124, ((2-(((3S,6S,7aR,8aS,9aR)-3-(((1H-pyrrolo[2,3-b]pyridin-3-yl)methyl)carbamoyl)-5-oxodecahydro-1H-cyclopropa[d]pyrrolo[1,2-a]azocin-6-yl)carbamoyl)benzo[b]thiophen-5-yl)difluoromethyl)phosphonic acid], the IC50 in assay [1] is below 100 nM; in assay [2] it was 300 to 3000 nM.

Consider `O=C(N[C@H]1C[C@H]2C[C@H]2C[C@H]2CC[C@@H](C(=O)N3CCN(C4CCOCC4)CC3)N2C1=O)c1cc2cc(C(F)(F)P(=O)(O)O)ccc2s1` [Compound 125, (difluoro(2-(((3S,6S,7aR,8aS,9aR)-5-ox0-3-(4-(tetrahydro-2H-pyran-4-yl)piperazine-1-carbonyl)decahydro-1H-cyclopropa[d]pyrrolo[1,2-a]azocin-6-yl)carbamoyl)benzo[b]thiophen-5-yl)methyl)phosphonic acid], for which the IC50 in assay [1] lay in the range of 100 to 1000 nM; in assay [2], 3000 to 30000 nM.

In the case of `CC(=O)N1C[C@H](NC(=O)[C@@H]2CC[C@@H]3C[C@@H]4C[C@@H]4C[C@H](NC(=O)c4cc5cc(C(F)(F)P(=O)(O)O)ccc5s4)C(=O)N32)[C@@H](F)C1` [Compound 126, ((2-(((3S,6S,7aR,8aS,9aR)-3-(((3S,4S)-1-acetyl-4-fluoropyrrolidin-3-yl)carbamoyl)-5-oxodecahydro-1H-cyclopropa[d]pyrrolo[1,2-a]azocin-6-yl)carbamoyl)benzo[b]thiophen-5-yl)difluoromethyl)phosphonic acid], the IC50 in assay [1] was below 100 nM; in assay [2], 300 to 3000 nM.

Take `CC(=O)N1C[C@@H](F)[C@@H](NC(=O)[C@@H]2CC[C@@H]3C[C@@H]4C[C@@H]4C[C@H](NC(=O)c4cc5cc(C(F)(F)P(=O)(O)O)ccc5s4)C(=O)N32)C1` [Compound 127, ((2-(((3S,6S,7aR,8aS,9aR)-3-(((3S,4R)-1-acetyl-4-fluoropyrrolidin-3-yl)carbamoyl)-5-oxodecahydro-1H-cyclopropa[d]pyrrolo[1,2-a]azocin-6-yl)carbamoyl)benzo[b]thiophen-5-yl)difluoromethyl)phosphonic acid]: the half-maximal inhibitory concentration (IC50) was below 100 nM in assay [1] and 3000 to 30000 nM in assay [2].

On to `O=C(N[C@H]1C[C@H]2C[C@H]2C[C@H]2CC[C@@H](C(=O)N[C@H]3CN(c4cccnc4)C[C@@H]3F)N2C1=O)c1cc2cc(C(F)(F)P(=O)(O)O)ccc2s1` [Compound 128, (difluoro(2-(((3S,6S,7aR,8aS,9aR)-3-(((3S,4S)-4-fluoro-1-(pyridin-3-yl)pyrrolidin-3-yl)carbamoyl)-5-oxodecahydro-1H-cyclopropa[d]pyrrolo[1,2-a]azocin-6-yl)carbamoyl)benzo[b]thiophen-5-yl)methyl)phosphonic acid], for which the IC50 in assay [1] is below 100 nM; in assay [2] it was 300 to 3000 nM.

On to `O=C(N[C@H]1C[C@H]2C[C@H]2C[C@H]2CC[C@@H](C(=O)N[C@H]3CN(c4cccnc4)C[C@H]3F)N2C1=O)c1cc2cc(C(F)(F)P(=O)(O)O)ccc2s1` [Compound 129, (difluoro(2-(((3S,6S,7aR,8aS,9aR)-3-(((3S,4R)-4-fluoro-1-(pyridin-3-yl)pyrrolidin-3-yl)carbamoyl)-5-oxodecahydro-1H-cyclopropa[d]pyrrolo[1,2-a]azocin-6-yl)carbamoyl)benzo[b]thiophen-5-yl)methyl)phosphonic acid], for which the IC50 is below 100 nM in assay [1] and 3000 to 30000 nM in assay [2].

Turning to `C[C@@H]1CN(C(=O)C2CN(C(=O)[C@@H]3CC[C@@H]4C[C@H]5C[C@H]5C[C@H](NC(=O)c5cc6cc(C(F)(F)P(=O)(O)O)ccc6s5)C(=O)N43)C2)CCO1` [Example 1, (difluoro(2-(((3S,6S,7aS,8aR,9aR)-3-(3-((R)-2-methylmorpholine-4-carbonyl)azetidine-1-carbonyl)-5-oxodecahydro-1H-cyclopropa[d]pyrrolo[1,2-a]azocin-6-yl)carbamoyl)benzo[b]thiophen-5-yl)methyl)phosphonic acid], the IC50 is below 100 nM in assay [1] and 3000 to 30000 nM in assay [2].

For `O=C(N[C@H]1C[C@@H]2C[C@@H]2C[C@H]2CC[C@@H](C(=O)Nc3ccc(-c4ccccc4)cc3)N2C1=O)c1cc2cc(C(F)(F)P(=O)(O)O)ccc2s1` [Example 3, ((2-(((3S,6S,7aS,8aR,9aR)-3-([1,1′-biphenyl]-4-ylcarbamoyl)-5-oxodecahydro-1H-cyclopropa[d]pyrrolo[1,2-a]azocin-6-yl)carbamoyl)benzo[b]thiophen-5-yl)difluoromethyl)phosphonic acid], the IC50 in assay [1] fell in the range of 100 to 1000 nM; in assay [2] it was 300 to 3000 nM.

As to `O=C(N[C@H]1C[C@@H]2C[C@@H]2C[C@H]2CC[C@@H](C(=O)N3CCN(C(=O)[C@@H]4CCOC4)CC3)N2C1=O)c1cc2cc(C(F)(F)P(=O)(O)O)ccc2s1` [Example 7, (difluoro(2-(((3S,6S,7aS,8aR,9aR)-5-oxo-3-(4-((R)-tetrahydrofuran-3-carbonyl)piperazine-1-carbonyl)decahydro-1H-cyclopropa[d]pyrrolo[1,2-a]azocin-6-yl)carbamoyl)benzo[b]thiophen-5-yl)methyl)phosphonic acid], the values for the IC50 in assay [1] and in assay [2] were 100 to 1000 nM and 300 to 3000 nM, respectively.
